target: 5HT7 receptors (Homo sapiens (Human), UniProt P34969); assay: Radiolabel Binding Studies for Serotonin 5-HT7 Receptors, Method 2 ([3H]-5HT competition; Ki, and percent inhibition at 10 μM); settings: single concentration 10 uM; inhibition of radioligand binding to 5HT7 receptors; read-out: 5-HT7 % inhib @ 10 uM
Protocol: A solution of the compound of the disclosure to be tested is prepared as a 1-mg/ml stock in Assay Buffer or DMSO according to its solubility. A similar stock of the reference compound chlorpromazine is also prepared as a positive control. Eleven dilutions (5× assay concentration) of the compound of the disclosure and chlorpromazine are prepared in the Assay Buffer by serial dilution to yield final corresponding assay concentrations ranging from 10 pM to 10 μM.
A stock concentration of 5 nM [^3H]-5-Hydroxytryptamine ([^3H]-5HT) is prepared in 50 mM Tris-HCl, 10 mM MgCl2, 1 mM EDTA, pH 7.4 (Assay Buffer). Aliquots (50 μl) of radioligand are dispensed into the wells of a 96-well plate containing 100 al of Assay Buffer. Duplicate 50-μl aliquots of the compound of the disclosure test and chlorpromazine positive control reference compound serial dilutions are added.
Membrane fractions of cells expressing recombinant 5HT7 receptors (50 μL) are dispensed into each well. The membranes are prepared from stably transfected cell lines expressing 5HT7 receptors cultured on 10-cm plates by harvesting PBS-rinsed monolayers, resuspending and lysing in chilled, hypotonic 50 mM Tris-HCl, pH 7.4, centrifuging at 20,000×g, decanting the supernatant and storing at −80° C.; the membrane preparations are resuspended in 3 ml of chilled Assay Buffer and homogenized by several passages through a 26 gauge needle before using in the assay.
The 250-μl reactions are incubated at room temperature for 1.5 hours, then harvested by rapid filtration onto 0.3% polyethyleneimine-treated, 96-well filter mats using a 96-well Filtermate harvester. Four rapid 500-μl washes are performed with chilled Assay Buffer to reduce non-specific binding. The filter mats are dried, then scintillant is added to the filters and the radioactivity retained on the filters is counted in a Microbeta scintillation counter.
Raw data (dpm) representing total radioligand binding (i.e., specific+non-specific binding) are plotted as a function of the logarithm of the molar concentration of the competitor (i.e., test or reference compound). Non-linear regression of the normalized (i.e., percent radioligand binding compared to that observed in the absence of test or reference compound) raw data is performed in Prism 4.0 (GraphPad Software) using the built-in three parameter logistic model describing ligand competition binding to radioligand-labeled sites: y=bottom+[(top−bottom)/(1+10×−log IC50)] where bottom equals the residual radioligand binding measured in the presence of 10 μM reference compound (i.e., non-specific binding) and top equals the total radioligand binding observed in the absence of competitor. The log IC50 (i.e., the log of the ligand concentration that reduces radioligand binding by 50%) is thus estimated from the data and used to obtain the Ki by applying the Cheng-Prusoff approximation: Ki=IC50/(1+[ligand]/KD) where [ligand] equals the assay radioligand concentration and KD equals the affinity constant of the radioligand for the target receptor.
Compounds of the disclosure are also screened at a single concentration of 10 μM using the same method described for the Radiolabel Binding Studies for Serotonin 5HT7 receptors to determine the percent inhibition of [^3H]-5HT binding.

5HT7 receptors, sequence (P34969 whole entry): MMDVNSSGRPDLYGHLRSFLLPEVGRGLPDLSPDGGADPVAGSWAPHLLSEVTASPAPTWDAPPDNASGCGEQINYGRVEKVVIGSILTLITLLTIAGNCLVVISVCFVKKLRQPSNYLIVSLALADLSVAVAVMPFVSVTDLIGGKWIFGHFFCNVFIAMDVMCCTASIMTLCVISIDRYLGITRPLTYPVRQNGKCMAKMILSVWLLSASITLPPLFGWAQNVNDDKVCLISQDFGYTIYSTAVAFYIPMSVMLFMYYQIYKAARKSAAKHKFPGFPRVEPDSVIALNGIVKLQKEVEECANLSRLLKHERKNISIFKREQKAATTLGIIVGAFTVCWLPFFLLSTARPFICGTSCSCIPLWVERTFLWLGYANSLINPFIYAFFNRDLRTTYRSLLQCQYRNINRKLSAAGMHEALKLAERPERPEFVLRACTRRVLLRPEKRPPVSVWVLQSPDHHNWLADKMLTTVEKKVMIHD

Compound | inhibition at 10 µM
Cc1ccc(N2CCN(CCC3CC4(CCN(Cc5ccccc5)CC4)C(=O)O3)CC2)cc1 (stereo not shown) [Entry 1] | 96.5%
Cc1ccc(N2CCN(CCC3CC4(CCNCC4)C(=O)O3)CC2)cc1 (stereo not shown) [Entry 2] | 88.8%
COC(=O)N1CCC2(CC1)CC(CCN1CCN(c3ccc(C)cc3)CC1)OC2=O (stereo not shown) [Entry 3] | 90%
CC(=O)N1CCC2(CC1)CC(CCN1CCN(c3ccc(C)cc3)CC1)OC2=O (stereo not shown) [Entry 4] | 88.5%
CNC(=O)N1CCC2(CC1)CC(CCN1CCN(c3ccc(C)cc3)CC1)OC2=O (stereo not shown) [Entry 5] | 91.6%
Cc1ccc(N2CCN(CCC3CC4(CCN(S(C)(=O)=O)CC4)C(=O)O3)CC2)cc1 (stereo not shown) [Entry 6] | 90.5%
Cc1nc2cccc(N3CCN(CCC4CC5(CCN(S(C)(=O)=O)CC5)C(=O)O4)CC3)c2[nH]1 (stereo not shown) [Entry 8] | 100%

Source: patent US10858368B2, “Modulators of the 5-hydroxytryptamine receptor 7 and their method of use” (Temple University—Of The Commonwealth System of Higher …, priority 2016, dated 2020)
